Like-named read-outs stand apart in the source and are kept apart here.
Legend:
[1] = test system: PI3Kα-KO MEFs transiently transfected with PIK3CA constructs; test: pAKT S473 in PI3Kα-KO MEFs transfected with p110α-WT or p110α-mutants; type: cell-based, mouse; details: 1938 5 μM
Text: Flag-PIK3R1 (a kind gift of Neil Vasan), PIK3CA-WT and mutant PIK3CA (D603K, L1006R, F1016S and L1006R/F1016S) were cloned into pcDNA3.4TOPO. pcDNA3-eGFP was used as a control for transfection efficiency and is available on Addgene repository upon request (Plasmid #13031). The mutations in PIK3CA were introduced by site-directed mutagenesis according to published commercial protocols using NEBuilder HiFi DNA Assembly Master Mix (NEB E2621). For each mutation, a pair of primers were designed to incorporate a mutation within the gene, with the resulting PCR products containing a 20 bp overlap and the desired mutations. The DpnI-treated and purified PCR products were combined with the linearized vector and treated with the NEBuilder HiFi DNA Assembly Master Mix. Following transformation, single colonies were grown and purified with QIAprep spin Miniprep kit (Qiagen 27106). All plasmids were sequenced for verification.
eGFP, Flag-PIK3R1, PIK3CA-WT and mutant PIK3CA (D603K, L1006R, F1016S, L1006R/F1016S) plasmids were used for transient transfection. Pik3ca-KO MEFs cells were seeded at 70-80% confluency in 6-well plate at 100,000 cells per well. […]

[2] = biological target: CAMK1 (CaMK1) (Homo sapiens, UniProt Q14012); test: SelectScreen Adapta; type: biochemical; details: 1000 nM, [ATP] 10 μM
Protocol: (§1) 133 protein kinases and 7 lipid kinases were counterscreened, with 1938 used at 1 μM, using the Adapta, Lantha and Z-LYTE assays (SelectScreen Kinase Profiling Service; Thermofisher – experimental details of these assays can be found here: https://www.thermofisher.com/uk/en/home/industrial/pharma-biopharma/drug-discovery-development/target-and-lead-identification-and-validation/kinasebiology/kinase-activity-assays.html. The tree represention in KinMap[59] generated courtesy of Cell Signaling Technology, Inc. (www.cellsignal.com). mTORC1 (mTOR/RAPTOR/LST8) protein complex and ATM kinase and substrates were produced as previously described[57],[60]. Screening of 1938 was conducted using SuperSep Phos-Tag 50 μmol/l 100 x 100 x 6.6 mm 17-well (192-18001/199-18011) gels. For ATM assays, 100 nM ATM was incubated for 30 min at 30°C with 5 μM GST-p53 and 1 mM ATP, in the absence or presence of 200 μM 1938 in ATM Kinase Buffer (50 mM HEPES pH 7.5, 100 mM NaCl, 10% glycerol, 2 mM […], 5 mM MgCl2). As a positive control for ATM activation, the same reaction was carried out with 100 nM ATM/5 μM GST-p53/1 mM ATP in the presence of 100 nM Mre11-Rad50-Nbs1 (MRN) complex, a known activator of ATM[61]. For mTORC1 assays, 50 nM mTORC1 complex (mTOR/LST8/RAPTOR) was incubated for 3 h at 30°C with 15 μM 4E-BP1, 10 mM MgCl2 and 250 μM ATP, in the absence or presence of 200 μM 1938. As a ‘positive’ control, a higher concentration (150 nM) of mTORC1 complex (mTOR/LST8/RAPTOR) was incubated for 3 h at 30°C with 15 μM 4E-BP1, 10 mM MgCl2 and 250 μM ATP. Kinase reactions were quenched by addition of SDS-PAGE Loading Buffer (as per manufacturer’s instructions) and freezing at -20°C before being run on the Phos-tag gels at 150 V for 90 min. Gels were then stained using InstantBlue™ Coomassie, and quantified using BioRad Image Lab Software. Kinase assays were carried out in triplicate.

[3] = biological target: CDK7/cyclin H/MNAT1 (Homo sapiens, UniProt P50613); test: SelectScreen Adapta; type: biochemical
CDK7/cyclin H/MNAT1, sequence (P50613 whole entry): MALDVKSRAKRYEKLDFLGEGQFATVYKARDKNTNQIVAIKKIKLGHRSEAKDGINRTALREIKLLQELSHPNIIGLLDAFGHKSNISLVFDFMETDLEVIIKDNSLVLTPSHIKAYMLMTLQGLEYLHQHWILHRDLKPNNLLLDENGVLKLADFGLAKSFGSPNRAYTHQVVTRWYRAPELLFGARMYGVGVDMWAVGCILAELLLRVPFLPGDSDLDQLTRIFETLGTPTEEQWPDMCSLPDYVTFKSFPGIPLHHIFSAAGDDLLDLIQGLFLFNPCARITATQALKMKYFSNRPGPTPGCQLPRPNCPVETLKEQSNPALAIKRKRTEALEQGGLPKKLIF
CDK7/cyclin H/MNAT1, sequence (P51946 whole entry partner): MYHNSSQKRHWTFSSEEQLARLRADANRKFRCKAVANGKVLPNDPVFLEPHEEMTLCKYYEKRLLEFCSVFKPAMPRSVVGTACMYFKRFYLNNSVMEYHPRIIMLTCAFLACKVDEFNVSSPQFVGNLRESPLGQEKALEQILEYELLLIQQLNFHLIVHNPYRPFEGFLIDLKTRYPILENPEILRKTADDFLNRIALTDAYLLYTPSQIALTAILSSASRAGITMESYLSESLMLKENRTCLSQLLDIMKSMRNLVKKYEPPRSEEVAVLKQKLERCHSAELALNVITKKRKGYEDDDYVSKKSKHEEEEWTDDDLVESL
CDK7/cyclin H/MNAT1, sequence (P51948 whole entry partner): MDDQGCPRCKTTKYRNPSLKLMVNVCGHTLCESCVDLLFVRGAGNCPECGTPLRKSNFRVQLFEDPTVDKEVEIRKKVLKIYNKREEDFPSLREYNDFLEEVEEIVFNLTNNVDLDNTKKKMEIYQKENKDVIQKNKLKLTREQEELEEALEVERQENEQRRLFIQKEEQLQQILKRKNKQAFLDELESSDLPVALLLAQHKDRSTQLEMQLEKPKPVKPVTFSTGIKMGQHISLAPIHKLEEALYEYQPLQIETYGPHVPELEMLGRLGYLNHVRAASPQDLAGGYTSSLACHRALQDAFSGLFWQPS
Protocol: as §1

[4] = biological target: IRAK1 (Homo sapiens, UniProt P51617); test: SelectScreen Adapta; type: biochemical
IRAK1, sequence (P51617 whole entry): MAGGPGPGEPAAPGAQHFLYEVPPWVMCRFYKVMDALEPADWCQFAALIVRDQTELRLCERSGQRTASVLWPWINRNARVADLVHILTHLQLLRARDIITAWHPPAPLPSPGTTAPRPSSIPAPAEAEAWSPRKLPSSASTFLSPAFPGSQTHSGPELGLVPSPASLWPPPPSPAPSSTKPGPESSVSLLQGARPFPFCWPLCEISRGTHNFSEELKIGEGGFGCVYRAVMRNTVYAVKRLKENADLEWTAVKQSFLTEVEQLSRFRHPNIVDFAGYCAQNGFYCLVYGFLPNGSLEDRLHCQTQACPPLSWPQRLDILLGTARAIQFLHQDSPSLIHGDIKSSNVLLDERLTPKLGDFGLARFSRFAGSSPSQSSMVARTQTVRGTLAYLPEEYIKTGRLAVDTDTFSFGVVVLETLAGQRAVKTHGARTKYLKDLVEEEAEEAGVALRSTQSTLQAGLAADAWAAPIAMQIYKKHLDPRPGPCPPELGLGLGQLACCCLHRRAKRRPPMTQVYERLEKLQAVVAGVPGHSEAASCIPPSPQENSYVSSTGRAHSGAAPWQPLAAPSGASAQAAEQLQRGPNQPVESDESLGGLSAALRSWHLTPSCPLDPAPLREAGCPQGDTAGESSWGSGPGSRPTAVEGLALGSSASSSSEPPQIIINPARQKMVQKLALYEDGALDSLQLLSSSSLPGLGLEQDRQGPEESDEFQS
Protocol: as §1

[5] = biological target: LRRK2 (Homo sapiens, UniProt Q5S007); test: SelectScreen Adapta; type: biochemical
Protocol: as §1

[6] = biological target: PIK3C2A (PI3K-C2 alpha) (Homo sapiens, UniProt O00443); test: SelectScreen Adapta; type: biochemical
Protocol: as §1

[7] = biological target: PIK3C3 (hVPS34) (Homo sapiens, UniProt Q8NEB9); test: SelectScreen Adapta; type: biochemical
PIK3C3 (hVPS34), sequence (Q8NEB9 whole entry): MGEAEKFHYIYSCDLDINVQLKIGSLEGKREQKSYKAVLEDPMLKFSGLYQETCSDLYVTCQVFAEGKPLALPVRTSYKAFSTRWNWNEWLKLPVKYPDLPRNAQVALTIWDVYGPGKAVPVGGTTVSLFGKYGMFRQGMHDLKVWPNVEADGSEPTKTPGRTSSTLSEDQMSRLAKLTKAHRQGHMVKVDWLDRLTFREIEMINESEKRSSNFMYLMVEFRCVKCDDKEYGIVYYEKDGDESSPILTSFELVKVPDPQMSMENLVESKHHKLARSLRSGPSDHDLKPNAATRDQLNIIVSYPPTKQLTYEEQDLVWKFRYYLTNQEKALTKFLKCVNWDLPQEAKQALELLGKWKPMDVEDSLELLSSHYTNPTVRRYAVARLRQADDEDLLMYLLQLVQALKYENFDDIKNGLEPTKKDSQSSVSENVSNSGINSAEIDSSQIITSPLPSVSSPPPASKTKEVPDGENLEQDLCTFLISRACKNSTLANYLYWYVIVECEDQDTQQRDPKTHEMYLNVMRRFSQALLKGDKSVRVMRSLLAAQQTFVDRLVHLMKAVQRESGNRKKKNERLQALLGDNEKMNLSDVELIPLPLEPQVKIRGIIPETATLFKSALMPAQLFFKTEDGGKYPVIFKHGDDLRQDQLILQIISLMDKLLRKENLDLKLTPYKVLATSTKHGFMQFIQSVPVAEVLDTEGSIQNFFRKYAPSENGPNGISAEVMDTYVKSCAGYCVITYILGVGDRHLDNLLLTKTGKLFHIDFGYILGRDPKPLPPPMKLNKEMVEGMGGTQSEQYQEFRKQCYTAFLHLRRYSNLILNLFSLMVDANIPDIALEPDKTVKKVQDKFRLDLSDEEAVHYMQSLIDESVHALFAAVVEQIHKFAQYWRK
Protocol: as §1

[8] = biological target: PIK3CD/PIK3R1 (p110 delta/p85 alpha) (Homo sapiens, UniProt O00329); test: SelectScreen Adapta; type: biochemical
Protocol: as §1

[9] = biological target: PIK3CG (p110 gamma) (Homo sapiens, UniProt P48736); test: SelectScreen Adapta; type: biochemical
PIK3CG (p110 gamma), sequence (P48736 whole entry): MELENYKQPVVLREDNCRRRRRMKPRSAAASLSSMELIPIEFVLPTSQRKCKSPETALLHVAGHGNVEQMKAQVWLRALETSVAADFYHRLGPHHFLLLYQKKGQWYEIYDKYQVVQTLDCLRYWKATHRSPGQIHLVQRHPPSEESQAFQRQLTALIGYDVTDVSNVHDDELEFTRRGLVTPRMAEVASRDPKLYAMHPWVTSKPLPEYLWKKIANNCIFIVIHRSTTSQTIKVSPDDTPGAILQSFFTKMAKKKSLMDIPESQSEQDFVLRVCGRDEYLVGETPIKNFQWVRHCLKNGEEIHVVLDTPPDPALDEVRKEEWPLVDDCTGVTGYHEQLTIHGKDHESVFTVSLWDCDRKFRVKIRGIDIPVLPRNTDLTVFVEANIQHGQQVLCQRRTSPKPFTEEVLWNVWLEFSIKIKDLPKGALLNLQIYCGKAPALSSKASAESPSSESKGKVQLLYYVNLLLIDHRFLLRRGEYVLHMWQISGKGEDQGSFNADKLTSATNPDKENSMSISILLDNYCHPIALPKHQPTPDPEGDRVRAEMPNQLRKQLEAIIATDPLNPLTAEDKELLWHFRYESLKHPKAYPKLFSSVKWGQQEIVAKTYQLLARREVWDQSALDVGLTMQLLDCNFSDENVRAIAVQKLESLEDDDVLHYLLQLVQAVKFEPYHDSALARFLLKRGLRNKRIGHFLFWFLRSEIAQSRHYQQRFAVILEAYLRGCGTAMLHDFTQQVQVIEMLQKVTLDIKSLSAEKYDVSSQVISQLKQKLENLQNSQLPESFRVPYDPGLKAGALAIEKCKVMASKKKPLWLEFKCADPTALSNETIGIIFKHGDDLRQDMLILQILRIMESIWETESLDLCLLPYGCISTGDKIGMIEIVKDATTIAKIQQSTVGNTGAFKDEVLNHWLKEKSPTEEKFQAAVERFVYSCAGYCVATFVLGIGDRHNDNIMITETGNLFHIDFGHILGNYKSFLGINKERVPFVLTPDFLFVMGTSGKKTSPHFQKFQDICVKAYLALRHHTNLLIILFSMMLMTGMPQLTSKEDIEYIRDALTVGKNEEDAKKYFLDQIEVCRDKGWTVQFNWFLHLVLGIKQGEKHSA
Protocol: as §1

With `CCN1CCN(c2ccc(Nc3cc(Nc4cccc5c4N(C(C)=O)CC5)ccn3)cc2)CC1` [Compound 1938] the “pAKT^S473 stimulation after expression of WT PI3Kα” value [1] was “restored 1938-mediated pAKT^S473 stimulation”, the “pAKT^S473 induction after expression of 1938-resistant p110α-mutants” value ([1]; D603K, L1006R, F1016S, L1006R/F1016S) was “none of the p110α-mutants resistant to 1938-activation in in vitro kinase assays showed a response” and the inhibition at 1 µM ([2]; read-out: % Inhibition Point 1) was 26%. It also gave an inhibition at 1 µM ([2]; read-out: % Inhibition Point 2) of 23%, an inhibition at 1 µM ([2]; read-out: % Inhibition mean) of 25% and an inhibition at 1 µM ([3]; read-out: % Inhibition Point 1) of -6.51%. The inhibition at 1 µM ([3]; read-out: % Inhibition Point 2) was 4%, the inhibition at 1 µM ([3]; read-out: % Inhibition mean) was -1.27% and the inhibition at 1 µM ([4]; read-out: % Inhibition Point 1) was 29%. The inhibition at 1 µM ([4]; read-out: % Inhibition Point 2) was 20%, the inhibition at 1 µM ([4]; read-out: % Inhibition mean) was 25% and the inhibition at 1 µM ([5]; read-out: % Inhibition Point 1) was 13%. For the same compound, the inhibition at 1 µM ([5]; read-out: % Inhibition Point 2) was 18%, the inhibition at 1 µM ([5]; read-out: % Inhibition mean) was 16% and the inhibition at 1 µM ([6]; read-out: % Inhibition Point 1) was 2%. The inhibition at 1 µM ([6]; read-out: % Inhibition Point 2) was 3.23%, the inhibition at 1 µM ([6]; read-out: % Inhibition mean) was 2.57% and the inhibition at 1 µM ([7]; read-out: % Inhibition Point 1) was 3.28%. For the same compound, the inhibition at 1 µM ([7]; read-out: % Inhibition Point 2) was 7.6%, the inhibition at 1 µM ([7]; read-out: % Inhibition mean) was 5.44% and the inhibition at 1 µM ([8]; read-out: % Inhibition Point 1) was 11%. For the same compound, the inhibition at 1 µM ([8]; read-out: % Inhibition Point 2) was -5%, the inhibition at 1 µM ([8]; read-out: % Inhibition mean) was 2.81% and the inhibition at 1 µM ([9]; read-out: % Inhibition Point 1) was 4.3%. It also gave an inhibition at 1 µM ([9]; read-out: % Inhibition Point 2) of 13% and an inhibition at 1 µM ([9]; read-out: % Inhibition mean) of 8.53%.

Reference: article PMC7614683, “A small molecule PI3Kα activator for cardioprotection and neuroregeneration” (Nature, 2023)
